Laboratory results published in patent publication US8927462B2, “Method for identifying HLA complexes associated with adverse drug reactions” (Academia Sinica, priority 2010, dated 2015).

How the values were obtained:
HLA-B*5101 = HLA-B*5101 (Homo sapiens, UniProt P01889, A329T/A93T/A95T/C349S/D138N/D201E/D98Y/E187L/E204Q/E69T/G107R/I218V/K202T/L105A/L119W/N104I/Q94N/R106L/R155S/R180L/S101N/S121T/S35A/S48A/V306I/V36M/Y195H/Y91F); assay: Surface plasmon resonance (SPR) binding to soluble HLA-B*5101; conditions: for binding to other HLA-B molecules (SPR): HLA-B*5101: at therapeutic concentrations
HLA-B*1501 = biological target: T1, HLA-B*1501 (Homo sapiens, UniProt P01889, A329T/A93T/A95T/C349S/D201E/D98Y/E187L/E204Q/E69M/E70A/K202T/N87E/Q94N/R155S/R180W/S121R/S35A/S48A/V306I/V36M/Y140S/Y91S); assay: Surface plasmon resonance (SPR) binding to soluble HLA-B*1501; conditions: for binding to other HLA-B molecules (SPR): HLA-B*1501: at therapeutic concentrations
T1 construct: Complexes containing soluble HLA-B*1501 or 1503 and β2-microglobulin were prepared following the same procedure described above; made in house

HLA-B*1503 = HLA-B*1503 (Homo sapiens, UniProt P01889, A329T/A93T/A95T/C349S/D201E/D98Y/E187L/E204Q/K202T/N87E/Q94N/R155S/R180L/S121R/S35A/V306I/V36M/Y140S/Y91S); assay: Surface plasmon resonance (SPR) binding to soluble HLA-B*1503; conditions: for binding to other HLA-B molecules (SPR): HLA-B*1503: at therapeutic concentrations
HLA-B*4001 = HLA-B*4001 (Homo sapiens, UniProt P01889, A65T/A93T/A95T/D138N/D98Y/E176V/E69K/N87E/Q56L/Q94N/R180L/S121R/S35A/S48T/T167S/V36M/W171L/Y33H/Y91S); assay: Surface plasmon resonance (SPR) binding to soluble HLA-B*4001; conditions: for binding to other HLA-B molecules (SPR): HLA-B*4001: at therapeutic concentrations
[1] = tested on: peptides bound to the soluble HLA-B*1502-β2-microglobulin complex; assay: Analysis of HLA-B-bound drug-modified peptides by liquid chromatography-tandem mass spectrometry (C1R-HLA-B*1502 clone treated with CBZ); parameters: species or system human; conditions: C1R-HLA-B*1502 culture, 50 μg/mL for 48 hours; LC-tandem MS of <3-kDa fraction
[2] = tested on: CBZ-specific CD8+ T cells; assay: [3H] thymidine incorporation assay, T cell proliferation with fixed and non-fixed B-LCLs; type: cell-based, human; conditions: fixed and unfixed autologous B-LCL; FIG. 4
Procedure: (§1) PBMC were isolated by the density-gradient Ficoll-Paque method according to the manufacturer's instructions (GE Healthcare Company, Piscataway, N.J., USA). […] After 3˜4 times of restimulation, CD8^+ T cells were sorted out for further functional assays. T cells were cultured with RPMI-HS medium consisted of RPMI 1640 supplemented with 10% heat-inactivated human type AB serum (Labquid Inc, Ontario, Calif.) and 50 U/ml IL-2 (R&D Systems, Minneapolis, Minn., USA). EBV-transformed B-cell lines (B-LCL) were generated by transforming the donor's PBMCs with supernatant from the EBV-producing cell lines B9-85.
(§2) Irradiated APCs (10^3) and T cells (10^4) were incubated with a test compound for 48 hours, and the proliferation of T cells was measured by incorporation of [^3H] thymidine. For fixation assay, autologous B-LCLs were pretreated with 0.05% paraformaldehyde for 30 s. For pulsing experiments, drugs were preincubated with B-LCLs overnight. B-LCLs were washed repeatedly to remove noncovalently bound drug, and then incubated with T cells.

autologous B-LCL cells = assay: 51Cr-release cytotoxicity assay, CBZ-specific CD8+ T cells against drug-pulsed autologous B-LCL; type: cell-based, human; conditions: B-LCL pulsed with 25 μg/ml drug overnight at 37° C. and washed out before the cytotoxicity assay; FIG. 3
Procedure: as §1
as §2, with “B-LCLs were washed repeatedly to remove noncovalently bound drug, and then incubated with T cells.” left out
B-LCLs, preincubated with IFN-γ (R&D Systems, Minneapolis, Minn., USA) overnight, were first incubated with ^51Cr (Perkin Elmer, Waltham, Mass., USA) for 1 hr at 37° C. […] Radioactivity in the supernatant from each wells was measured by a Topcount (Packard Biosciences, Meriden, Conn., USA). The percentage of specific lysis was calculated as follows: (^51Cr release in the test well−spontaneous ^51Cr release)/(maximum ^51Cr release−spontaneous ^51Cr release).

Structure (SMILES) | binding to other HLA-B molecules (SPR): HLA-B*5101 (HLA-B*5101) | binding to other HLA-B molecules (SPR): HLA-B*1501 (HLA-B*1501) | binding to other HLA-B molecules (SPR): HLA-B*1503 (HLA-B*1503) | binding to other HLA-B molecules (SPR): HLA-B*4001 (HLA-B*4001) | covalent binding of drug to HLA-B*1502-bound peptides [1] | binding to HLA-B*5101 (SPR) (HLA-B*5101; FIG. 6) | binding to HLA-B*1501 (SPR) (HLA-B*1501; FIG. 6) | presentation by B-LCL and activation (proliferation) of CBZ-specific CD8+ T cells [2] | binding to HLA-B*1503 (SPR) (HLA-B*1503; FIG. 6) | binding to HLA-B*4001 (SPR) (HLA-B*4001; FIG. 6) | response (specific lysis) of CBZ-specific CD8+ T cells to pulsed autologous B-LCL (autologous B-LCL cells)
CC1(C)O[C@@H]2[C@@H](CO[C@@]3(COS(N)(=O)=O)OC(C)(C)O[C@@H]23)O1 [TOP, topiramate] | did not bind | did not bind | did not bind | did not bind | – | – | – | – | – | – | –
CC[C@@H](C(N)=O)N1CCCC1=O [LEV, levetiracetam] | did not bind | did not bind | did not bind | did not bind | – | – | – | – | – | – | –
NC(=O)N1c2ccccc2C=Cc2ccccc21 [CBZ, carbamazepine] | – | – | – | – | does not covalently bind to peptides | did not bind | neither CBZ nor its seven analogs (see the Compounds section above) binds | able to be presented by both fixed and unfixed autologous B-LCL and activated | neither CBZ nor its seven analogs (see the Compounds section above) binds | did not bind | none of the CBZ-specific CD8^+ T cells responded
NCC1(CC(=O)O)CCCCC1 [GAB, gabapentin] | did not bind | did not bind | did not bind | did not bind | – | – | – | negative results | – | – | –
